Data on 13 compounds can be found in ChEMBL document CHEMBL1201862, “PubChem BioAssay data set” (2004).

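Following 48 hours of exposure in 96-well plates, responses at five concentrations were used to interpolate endpoints linearly. GI50: concentration for 50% inhibition of growth.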 The source made the active and inactive calls. Cut-off read from the data, not from the text of the source: active = GI50 up to about 1.1 µM and inactive = higher.

Among the test systems are M19-MEL; SK-MEL-2; CCRF-CEM; NCI-H522; SNB-75; KM-20L2; HCC 2998; NCI/ADR-RES; SNB-78; HOP-92; UACC-257; CAKI-1; A498; OVCAR-3; NCI-H226; MCF7; M14; SR; T47D; PC-3.
What all share (test): inhibition of tumour cell growth, NCI panel, 48 h

For the compound `CCOC(=O)NC(=O)c1cn(CCN(CCO)C(=O)NCCCCCCNC(=O)N(CCO)CCn2cc(C(=O)NC(=O)OCC)c(=O)[nH]c2=O)c(=O)[nH]c1=O`, the GI50 in the assay on M19-MEL, in the assay on SK-MEL-2, with CCRF-CEM, with NCI-H522, in the assay with SNB-75 and with KM-20L2 was > 100 µM (inactive) each time. The GI50 with HCC 2998, in the assay with NCI/ADR-RES, in the assay on SNB-78, with HOP-92, with UACC-257 and in the assay on CAKI-1 was > 100 µM (inactive) in each case. The GI50 with A498, in the assay with OVCAR-3, in the assay with NCI-H226 and in the assay with MCF7 was > 100 µM (inactive) each time.

With `CCCCCCCCCOCC(COP(=O)([O-])OCC[N+](C)(C)C)OC` (stereo not drawn), the GI50 in the assay with M19-MEL, in the assay with SK-MEL-2, in the assay on CCRF-CEM, with NCI-H522, with SNB-75 and in the assay on KM-20L2 was > 100 µM (inactive) throughout. In addition, the GI50 with HCC 2998, in the assay on NCI/ADR-RES, in the assay with SNB-78, with HOP-92, in the assay with UACC-257 and with CAKI-1 was > 100 µM (inactive) throughout. Moreover, the GI50 in the assay on A498 is > 100 µM (inactive); in the assay on OVCAR-3 it was > 100 µM (inactive); with NCI-H226, 99.1 µM (inactive); in the assay with MCF7, 68.7 µM (inactive).

On to `CCCCCCCCCCCCCCCC(=O)OC1C(O)C(CO)OC(OC)C1NC(=O)N(CCCl)N=O` (stereo not drawn), for which the GI50 is 15.9 µM (inactive) in the assay with M19-MEL; 18.4 µM (inactive) in the assay on M14; 23.9 µM (inactive) in the assay with SK-MEL-2; 10.7 µM (inactive) with NCI-H522; 12 µM (inactive) with SNB-75; 17.9 µM (inactive) with KM-20L2. Also, the GI50 is 19.5 µM (inactive) in the assay with SNB-78; 16.3 µM (inactive) in the assay with UACC-257; 32 µM (inactive) in the assay on CAKI-1; 18.7 µM (inactive) with OVCAR-3; 16.6 µM (inactive) in the assay on NCI-H226; 4.46 µM (inactive) in the assay with SR.

Regarding `NS(=O)(=O)C1CCCCC1C(=O)NNC(=O)C(=O)Nc1nnc(S)[nH]1` (stereo not drawn), the GI50 in the assay on M19-MEL, in the assay on M14, in the assay on SK-MEL-2, with CCRF-CEM, in the assay with NCI-H522 and in the assay with SNB-75 was > 100 µM (inactive) in each case. Further, the GI50 in the assay with KM-20L2, with HCC 2998, in the assay on SNB-78, in the assay with HOP-92, in the assay with UACC-257 and with CAKI-1 was > 100 µM (inactive) in each case. In addition, the GI50 in the assay on A498, with NCI-H226 and with SR was > 100 µM (inactive) throughout.

For the compound `O=[PH](O)c1cccs1`, the GI50 in the assay on M19-MEL was > 100 µM (inactive); with M14, > 100 µM (inactive); in the assay with CCRF-CEM it was > 100 µM (inactive); in the assay on NCI-H522, > 100 µM (inactive); in the assay on KM-20L2 it was > 100 µM (inactive); in the assay on HOP-92 it was 57 µM (inactive). For the same compound, the GI50 in the assay with CAKI-1 and in the assay with A498 was > 100 µM (inactive) each time.

For `COc1ccc(N2CN(C)CSC2=S)cc1`, the GI50 with T47D is 54 µM (inactive); with M14, 38.5 µM (inactive); in the assay on SK-MEL-2, > 100 µM (inactive); in the assay with CCRF-CEM, 13.1 µM (inactive); with NCI-H522, 29.7 µM (inactive); with SNB-75 it was > 100 µM (inactive). In addition, the GI50 in the assay with PC-3, with HCC 2998, with NCI/ADR-RES, in the assay with UACC-257, with CAKI-1 and in the assay with A498 was > 100 µM (inactive) throughout. Moreover, the GI50 is 4.73 µM (inactive) in the assay on OVCAR-3 and 89.7 µM (inactive) in the assay on MCF7.

As to `CO/N=C1/c2sccc2[C@H](NC(=O)C(F)(F)F)[C@@H]1O`, the GI50 in the assay on T47D, in the assay with M14, in the assay on SK-MEL-2, in the assay with CCRF-CEM, in the assay on SNB-75 and with PC-3 was > 100 µM (inactive) in each case. Besides, the GI50 with HCC 2998, in the assay with NCI/ADR-RES, in the assay on HOP-92, with UACC-257, in the assay with CAKI-1 and in the assay on A498 was > 100 µM (inactive) throughout. In addition, the GI50 in the assay with OVCAR-3, in the assay on NCI-H226, with SR and with MCF7 was > 100 µM (inactive) each time.

As to `Cc1ccc2c(=O)c3ccccc3sc2c1`, the GI50 in the assay on M19-MEL, in the assay on M14, with CCRF-CEM, in the assay on NCI-H522, in the assay with KM-20L2 and in the assay on HCC 2998 was > 100 µM (inactive) throughout. In addition, the GI50 in the assay with CAKI-1 is 45.4 µM (inactive); in the assay with OVCAR-3 it was > 100 µM (inactive); in the assay on NCI-H226 it was > 100 µM (inactive); with SR, 79.4 µM (inactive).

With `O=C(N/N=C\c1cccc2ccccc12)Nc1ccccc1`, the GI50 with T47D, in the assay with M14, in the assay with SK-MEL-2, with CCRF-CEM, in the assay on SNB-75 and with PC-3 was > 100 µM (inactive) each time. In addition, the GI50 in the assay with NCI/ADR-RES, in the assay on HOP-92, in the assay on UACC-257, in the assay with CAKI-1, in the assay with A498 and in the assay on OVCAR-3 was > 100 µM (inactive) in each case. Moreover, the GI50 in the assay with NCI-H226, in the assay with SR and in the assay on MCF7 was > 100 µM (inactive) throughout.

Consider `O=C1CCC(c2ccc(Cl)cc2)=NN1c1nsc2ccccc12`, for which the GI50 in the assay with M19-MEL is 37.2 µM (inactive); in the assay on M14, > 10 µM (inactive); with SK-MEL-2 it was 19.1 µM (inactive); in the assay on CCRF-CEM it was 17.7 µM (inactive); in the assay with SNB-75, 5.77 µM (inactive); in the assay on KM-20L2, 35.2 µM (inactive). Moreover, the GI50 is 18.2 µM (inactive) with HCC 2998; 25.4 µM (inactive) in the assay on SNB-78; 21.5 µM (inactive) with HOP-92; 22.9 µM (inactive) in the assay with UACC-257; 17.7 µM (inactive) in the assay with OVCAR-3; 22.3 µM (inactive) in the assay on SR.

For `CCCCCCc1ccc(O)cc1O` [HEXYLRESORCINOL], the GI50 is 42.8 µM (inactive) in the assay on M19-MEL; 26.1 µM (inactive) with SK-MEL-2; 32 µM (inactive) with CCRF-CEM; 36.1 µM (inactive) with NCI-H522; 28.8 µM (inactive) in the assay on SNB-75; > 100 µM (inactive) in the assay with KM-20L2. Also, the GI50 in the assay with HCC 2998 was > 100 µM (inactive); in the assay on NCI/ADR-RES, 38.4 µM (inactive); in the assay on SNB-78 it was > 72.8 µM (inactive); in the assay with HOP-92 it was 30.6 µM (inactive); in the assay on UACC-257 it was 39.5 µM (inactive); with A498, > 100 µM (inactive). Moreover, the GI50 is 36.4 µM (inactive) with OVCAR-3, 57.8 µM (inactive) with NCI-H226 and 81.1 µM (inactive) in the assay with MCF7.

For `O=C1CNC(=O)N1` [HYDANTOIN], the GI50 in the assay on M19-MEL is > 1120 µM (inactive); in the assay with SK-MEL-2 it was > 1120 µM (inactive); in the assay on CCRF-CEM it was 681 µM (inactive); in the assay on NCI-H522, > 1120 µM (inactive); in the assay with SNB-75, 177 µM (inactive); in the assay on KM-20L2 it was > 1120 µM (inactive). Moreover, the GI50 with HCC 2998 was > 1120 µM (inactive); in the assay on NCI/ADR-RES it was > 1120 µM (inactive); in the assay with SNB-78, > 1120 µM (inactive); with HOP-92, > 11.2 µM (inactive); in the assay on UACC-257, > 1120 µM (inactive); in the assay with CAKI-1, > 1120 µM (inactive). In addition, the GI50 with A498 was > 1120 µM (inactive); in the assay on OVCAR-3, > 1120 µM (inactive); in the assay with NCI-H226 it was 11.2 µM (inactive); in the assay on MCF7 it was > 1120 µM (inactive).

As to `CC(=O)CC(=O)CCC(=O)O` [SUCCINYLACETONE], the GI50 with M19-MEL is > 100 µM (inactive); in the assay with M14 it was > 100 µM (inactive); in the assay with SK-MEL-2, > 100 µM (inactive); in the assay with NCI-H522 it was > 100 µM (inactive); in the assay on SNB-75, < 0.01 µM (active); in the assay on KM-20L2, > 100 µM (inactive). The GI50 in the assay on HCC 2998 was > 100 µM (inactive); with SNB-78 it was > 100 µM (inactive); with HOP-92 it was < 0.01 µM (active); in the assay on UACC-257, > 100 µM (inactive); in the assay on CAKI-1, > 100 µM (inactive); with NCI-H226 it was > 100 µM (inactive). The GI50 in the assay on SR is > 100 µM (inactive).
